Data taken from patent publication US10947239B2, “[1,2,4]triazolo[1,5-a]pyrimidin-7-yl compound” (Janssen Pharmaceutica NV, priority 2015, dated 2021).

Columns and labels:
[1] = target: Rat recombinant PDE10A (rPDE10A2) (Rattus norvegicus (Rat), UniProt Q9QYJ6); test: In vitro assay PDE10A (SPA, 3H-cAMP); assay type: biochemical; conditions: −log IC50 expressed in mol/L
Description: Rat recombinant PDE10A (rPDE10A2) was expressed in Sf9) cells using a recombinant rPDE10A baculovirus construct. Cells were harvested after 48 h of infection and the rPDE10A protein was purified by metal chelate chromatography on Ni-sepharose 6FF. Tested compounds were dissolved and diluted in 100% DMSO to a concentration 100 fold of the final concentration in the assay. Compound dilutions (0.4 μl) were added in 384 well plates to 20 μl of incubation buffer (50 mM Tris pH 7.8, 8.3 mM MgCl2, 1.7 mM EGTA). 10 μl of rPDE10A enzyme in incubation buffer was added and the reaction was started by addition of 10 μl substrate to a final concentration of 60 nM cAMP and 0.008 μCi ^3H-cAMP. The reaction was incubated for 60 minutes at room temperature. After incubation, the reaction was stopped with 20 μl of stop solution consisting of 17.8 mg/ml PDE SPA (scintillation proximity assay) beads. After sedimentation of the beads during 30 minutes the radioactivity was measured in a Perkin Elmer Topcount scintillation counter and results were expressed as cpm. For blanc values the enzyme was omitted from the reaction and replaced by incubation buffer. Control values were obtained by addition of a final concentration of 1% DMSO instead of compound. […]

[2] = target: Human recombinant PDE2A (hPDE2A) (Homo sapiens (Human), UniProt O00408); test: In vitro assay PDE2A (SPA, 3H-cGMP); assay type: biochemical
Chain of Human recombinant PDE2A (hPDE2A) (O00408 whole entry): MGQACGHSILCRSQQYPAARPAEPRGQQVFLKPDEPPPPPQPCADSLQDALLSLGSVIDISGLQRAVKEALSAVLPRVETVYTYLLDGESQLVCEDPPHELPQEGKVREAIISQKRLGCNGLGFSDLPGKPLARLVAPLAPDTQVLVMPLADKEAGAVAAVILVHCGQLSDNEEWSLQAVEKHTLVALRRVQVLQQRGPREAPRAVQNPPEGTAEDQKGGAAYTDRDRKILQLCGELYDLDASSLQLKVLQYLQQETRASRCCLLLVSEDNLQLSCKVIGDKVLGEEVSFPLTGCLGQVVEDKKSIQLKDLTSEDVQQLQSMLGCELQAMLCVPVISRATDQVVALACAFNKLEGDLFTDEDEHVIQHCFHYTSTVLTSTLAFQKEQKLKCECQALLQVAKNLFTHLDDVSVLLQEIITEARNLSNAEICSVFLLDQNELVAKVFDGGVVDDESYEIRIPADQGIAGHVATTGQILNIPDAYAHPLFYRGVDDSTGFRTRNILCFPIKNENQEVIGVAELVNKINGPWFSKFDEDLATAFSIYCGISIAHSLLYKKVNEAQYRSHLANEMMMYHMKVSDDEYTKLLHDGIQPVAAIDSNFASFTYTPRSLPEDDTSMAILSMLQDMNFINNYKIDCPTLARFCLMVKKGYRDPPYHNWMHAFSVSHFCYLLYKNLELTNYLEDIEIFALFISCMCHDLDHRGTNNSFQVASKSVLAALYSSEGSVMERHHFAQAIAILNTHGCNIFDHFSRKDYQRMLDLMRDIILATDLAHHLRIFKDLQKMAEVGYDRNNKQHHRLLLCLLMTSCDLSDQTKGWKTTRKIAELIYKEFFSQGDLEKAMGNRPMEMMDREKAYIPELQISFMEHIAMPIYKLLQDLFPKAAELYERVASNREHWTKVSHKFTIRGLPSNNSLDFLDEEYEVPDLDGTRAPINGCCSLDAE
Description: Human recombinant PDE2A (hPDE2A) was expressed in Sf9 cells using a recombinant […] baculovirus construct. […] Tested compounds were dissolved and diluted in 100% DMSO to a concentration 100 fold of the final concentration in the assay. Compound dilutions (0.4 μl) were added in 384 well plates to 20 μl of incubation buffer (50 mM Tris pH 7.8, 8.3 mM MgCl2, 1.7 mM EGTA). […] of hPDE2A enzyme in incubation buffer was added and the reaction was started by addition of 10 μl substrate to a final concentration of 10 μM cGMP and 0.01 μCi ^3H-cGMP. The reaction was incubated for 45 minutes at room temperature. […] After sedimentation of the beads during 30 minutes the radioactivity was measured in a Perkin Elmer Topcount scintillation counter and results were expressed as cpm. For blanc values the enzyme was omitted from the reaction and replaced by incubation buffer. Control values were obtained by addition of a final concentration of 1% DMSO instead of compound.

[3] = system: dentate gyrus of anesthetized adult Sprague Dawley; test: LTP / synaptic plasticity in dentate gyrus of anesthetized rats; assay type: in vivo, rat
[4] = target: Human recombinant PDE3A (hPDE3A) (Homo sapiens, UniProt Q14432); test: In vitro assay PDE3A (SPA, 3H-cAMP); assay type: biochemical; conditions: −log IC50 expressed in mol/L; method describes hPDE3A
Chain of Human recombinant PDE3A (hPDE3A) (Q14432 whole entry, looked up): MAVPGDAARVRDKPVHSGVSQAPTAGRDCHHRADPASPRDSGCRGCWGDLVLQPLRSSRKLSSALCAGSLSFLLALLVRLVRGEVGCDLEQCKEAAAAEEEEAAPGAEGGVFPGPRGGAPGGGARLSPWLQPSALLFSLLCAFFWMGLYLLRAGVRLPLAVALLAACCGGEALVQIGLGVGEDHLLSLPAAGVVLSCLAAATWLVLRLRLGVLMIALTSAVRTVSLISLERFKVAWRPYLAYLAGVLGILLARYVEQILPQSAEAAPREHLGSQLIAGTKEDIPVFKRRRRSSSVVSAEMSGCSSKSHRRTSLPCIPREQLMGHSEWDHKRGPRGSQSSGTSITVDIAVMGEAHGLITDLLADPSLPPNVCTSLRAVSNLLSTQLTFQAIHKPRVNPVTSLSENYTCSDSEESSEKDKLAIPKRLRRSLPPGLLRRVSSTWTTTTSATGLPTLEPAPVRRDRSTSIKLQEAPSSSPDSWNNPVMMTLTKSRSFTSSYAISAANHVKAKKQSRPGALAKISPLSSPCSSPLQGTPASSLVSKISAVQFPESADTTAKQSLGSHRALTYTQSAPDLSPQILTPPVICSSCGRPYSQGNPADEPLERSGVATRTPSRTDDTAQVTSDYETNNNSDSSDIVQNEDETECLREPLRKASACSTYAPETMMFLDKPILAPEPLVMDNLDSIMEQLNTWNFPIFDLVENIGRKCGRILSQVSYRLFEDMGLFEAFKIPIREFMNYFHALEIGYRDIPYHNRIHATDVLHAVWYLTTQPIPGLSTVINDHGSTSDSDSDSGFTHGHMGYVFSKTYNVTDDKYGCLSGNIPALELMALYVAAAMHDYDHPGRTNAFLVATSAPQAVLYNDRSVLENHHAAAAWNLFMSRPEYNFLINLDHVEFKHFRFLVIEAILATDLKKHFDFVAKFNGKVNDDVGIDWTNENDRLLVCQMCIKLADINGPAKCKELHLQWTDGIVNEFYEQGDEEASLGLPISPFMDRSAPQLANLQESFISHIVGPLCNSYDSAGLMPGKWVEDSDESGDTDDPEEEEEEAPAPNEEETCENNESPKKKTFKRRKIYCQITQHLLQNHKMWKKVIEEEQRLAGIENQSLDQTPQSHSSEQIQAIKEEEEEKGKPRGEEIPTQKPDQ
Description: Human recombinant PDE3A (hPDE3A) was supplied as a partially purified insect cell lysate by Scottish Biomedical, it was cloned from human brain and expressed in Sf9 cells. Tested compounds were dissolved and diluted in 100% DMSO to a concentration 100 fold of the final concentration in the assay. Compound dilutions (0.4 μl) were added in 384 well plates to 20 μl of incubation buffer (50 mM Tris pH 7.8, 8.3 mM MgCl2, 1.7 mM EGTA). 10 μl of hPDE3A enzyme in incubation buffer was added and the reaction was started by addition of 10 μl substrate to a final concentration of 0.4 μM cAMP and 2.4 μCi/ml [^3H]-cAMP. The reaction was incubated for 60 min at room temperature. After incubation, the reaction was stopped with 20 μl of stop solution consisting of 17.8 mg/ml PDE SPA (scintillation proximity assay) beads supplemented with 200 mM ZnCl2. After sedimentation of the beads during 30 min the radioactivity was measured in a Perkin Elmer Topcount scintillation counter and results were expressed as cpm. For blanc values the enzyme was omitted from the reaction and replaced by incubation buffer. Control values were obtained by addition of a final concentration of 1% DMSO instead of compound. […]

Marshall Beagle dogs = test: Single dose PK/PD PDE2i dog study; assay type: in vivo
Description: For these studies male and female Marshall Beagle dogs (1-6 y) were used: 2 males and 2 females per treatment group. Cerebrospinal fluid (CSF) was sampled from the lateral ventricle via a needle guide cannula in instrumented conscious animals.
Baseline CSF and blood samples were taken 2 to 5 days before dosing. The dogs are fasted overnight and the next morning dosed on an empty stomach (orally by gavage). At predetermined time points after dosing blood and/or CSF was collected for the measurement of compound levels and cGMP. Analysis of cGMP was done by LCMS/MS: 25 μl CSF was diluted with 125 μl artificial CSF (STIL (20 ng/ml)), centrifugated and 25 μl was injected. The systems used were: a Shimadzu SIL-30 UPLC-system (Hypercarb (50 mm×1 mm (3 μm)) column, basic (10 mM ammonium carbonate) aqueous-acetonitrile gradient (5% to 98% in 5.5 minutes) at a flow-rate of 250 μl/min) and an API Sciex 5500 system equiped with an ESI source (selective MRM transition (m/z 346.1→152.1 (75 msec dwelltime)). The results of this study are summarized in FIG. 7. After a single dose of compound 1 the following observations were made: slight to moderate tremors in 3/8 animals at 0.5 mg/kg; sedation and/or tremors in 6 out of 7 animals at 1 mg/kg (one animal was not dosed due to limited stock of the compound). […] Limited individual data in the vehicle group of PDE2 H-2 (n=2 at 1, 4 and 8 h) due to analytical errors.

[5] = 40 mg/kg SC, 90-120 min post-tetanization, relative to baseline 100%

Chain of Rat recombinant PDE10A (rPDE10A2) (Q9QYJ6 whole entry): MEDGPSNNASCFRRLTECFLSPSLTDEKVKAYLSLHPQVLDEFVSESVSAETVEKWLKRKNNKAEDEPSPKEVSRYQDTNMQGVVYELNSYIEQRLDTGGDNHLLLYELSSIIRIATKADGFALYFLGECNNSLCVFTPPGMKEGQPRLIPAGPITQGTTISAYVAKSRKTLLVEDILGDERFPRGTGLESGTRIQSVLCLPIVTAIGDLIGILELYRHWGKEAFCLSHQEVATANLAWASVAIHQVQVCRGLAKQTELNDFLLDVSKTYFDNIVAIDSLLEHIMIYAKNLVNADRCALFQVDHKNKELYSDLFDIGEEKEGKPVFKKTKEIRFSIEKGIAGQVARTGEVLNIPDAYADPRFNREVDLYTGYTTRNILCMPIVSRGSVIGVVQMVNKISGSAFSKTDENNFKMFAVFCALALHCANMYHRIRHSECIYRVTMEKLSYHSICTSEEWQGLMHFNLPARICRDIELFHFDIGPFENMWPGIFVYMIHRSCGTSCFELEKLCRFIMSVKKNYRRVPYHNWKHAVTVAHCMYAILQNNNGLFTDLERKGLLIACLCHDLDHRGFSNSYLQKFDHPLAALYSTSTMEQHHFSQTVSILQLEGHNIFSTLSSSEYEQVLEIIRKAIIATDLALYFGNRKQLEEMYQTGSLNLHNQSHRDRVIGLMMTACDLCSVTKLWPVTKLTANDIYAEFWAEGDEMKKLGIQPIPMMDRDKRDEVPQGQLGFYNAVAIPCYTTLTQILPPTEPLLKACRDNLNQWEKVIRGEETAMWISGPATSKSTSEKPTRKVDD

SMILES: Cc1cc(C(=O)N2CC[C@@H](C)[C@H](c3cc(C(F)F)nc4ncnn34)C2)cc(C)n1 [Compound 1]
- pIC50 PDE10A2 [1]: 7.06
- IC50 ([2]; hPDE2A, 10 μM cGMP): 0.95 nM
- pIC50 (PDE2A) ([2]; −log IC50 expressed in mol/L): 9.07
- PSA slopes ([3]; 40 mg/kg SC, 0-30 min after tetanization, relative to baseline 100%): 164±13%
- PSA amplitude [3, 5]: 179±20%
- fEPSP slope [3, 5]: 137±24%
- duration of enhanced synaptic potentiation ([3]; 40 mg/kg SC, LTP induction paradigm): > 2 h
- Basal synaptic transmission ([3]; baseline pre-tetanus, versus vehicle-treated control): not affected
- LTP in vivo ([3]; overall conclusion): facilitates LTP in vivo
- pIC50 PDE3B [4]: 5.21
- Plasma pharmacokinetics dose linearity (Marshall Beagle dogs; single oral dose): non-dose linearity
- slight to moderate tremors (Marshall Beagle dogs; single oral dose 0.5 mg/kg): 3/8
- sedation and/or tremors (Marshall Beagle dogs; single oral dose 1 mg/kg): 6 out of 7
- cGMP in the CSF (Marshall Beagle dogs; single oral dose, CSF from lateral ventricle): dose related increase
